According to ChEMBL document CHEMBL4483862, “Open-source discovery of chemical leads for next-generation chemoprotective antimalarials” (2018):

Test system: Plasmodium berghei
Assay: Luciferase/luciferin-expressing antifolate-resistant parasites were used to infect a culture of HepG2 cells that were pre-incubated with compounds. Infected hepatocytes emit light due to the luciferase reaction. Assay results are presented as the percent inhibition of light emission compared to control. […]
Assay type: functional
Details: sporozoite; for IC90: read-out: LUCIFERASE INFECTION ASSAY - IC90
[1] = read-out: LUCIFERASE INFECTION ASSAY - IC50

Compound	IC90	IC50 [1]	further results
C[C@@H]1OC(O[C@H]2C[C@@H](O)[C@]3(CO)[C@@H]4C(CC[C@]3(O)C2)[C@@]2(O)CC[C@H](C3=CC(=O)OC3)[C@@]2(C)C[C@H]4O)[C@H](O)[C@H](O)[C@H]1O (stereo not given in full)	0.179 µM	–	IC50 (HEPG2TOX_HILL_SLOPE 1.56, HEPG2TOX_R_SQUARED 0.89, PBLUC_HILL_SLOPE 1.86, PBLUC_R_SQUARED 0.797, read-out: LUCIFERASE INFECTION ASSAY - IC50): 0.0548 µM
O=c1nc(CCc2ccc3c(c2)OCCO3)[nH]c2ccccc12	3.7 µM	–	IC50 (PBLUC_HILL_SLOPE 12.5, PBLUC_R_SQUARED 0.668, read-out: LUCIFERASE INFECTION ASSAY - IC50): 3.11 µM
COC(=O)c1c(C)[nH]c(C2=NNC(=NC3CC3)SC2)c1C	0.0583 µM	–	IC50 (FFLUC_HILL_SLOPE 1.61, FFLUC_R_SQUARED 0.895, PBLUC_HILL_SLOPE 1.62, PBLUC_R_SQUARED 0.572, read-out: LUCIFERASE INFECTION ASSAY - IC50): 0.015 µM
Cc1ccc(-n2c(Sc3ccc4nnnn4n3)nc3sc4c(c3c2=O)CCC(C)C4)cc1C (stereo not given)	> 10 µM	–	IC50 (FFLUC_HILL_SLOPE 3.23, FFLUC_R_SQUARED 0.696, PBLUC_HILL_SLOPE 2.23, PBLUC_R_SQUARED 0.861, read-out: LUCIFERASE INFECTION ASSAY - IC50): 4.15 µM
CC(=O)c1c(C)cc(C)c(CNc2ccc(NC(=O)C3CC3)cc2C(F)(F)F)c1C	4.59 µM	–	IC50 (HEPG2TOX_HILL_SLOPE 10.3, HEPG2TOX_R_SQUARED 0.233, PBLUC_HILL_SLOPE 1.48, PBLUC_R_SQUARED 0.914, read-out: LUCIFERASE INFECTION ASSAY - IC50): 1.03 µM
c1ccc(Oc2cccc(Nc3nccc4nc(-c5ccccc5)[nH]c34)c2)cc1	3.51 µM	–	IC50 (HEPG2TOX_HILL_SLOPE 1.11, HEPG2TOX_R_SQUARED 0.909, PBLUC_HILL_SLOPE 45.8, PBLUC_R_SQUARED 0.688, read-out: LUCIFERASE INFECTION ASSAY - IC50): 3.34 µM
O=C(Nc1cccc(Cl)c1)Nc1ccccc1N1CCCC1	> 10.4 µM	–	IC50 (HEPG2TOX_HILL_SLOPE 6.22, HEPG2TOX_R_SQUARED 0.342, PBLUC_HILL_SLOPE 2.56, PBLUC_R_SQUARED 0.455, read-out: LUCIFERASE INFECTION ASSAY - IC50): 6.9 µM
CCN(c1ccccc1)S(=O)(=O)c1ccc(NNC(=O)Nc2cccc3ccccc23)nc1	> 10 µM	8.75 µM	–
O=C(NCc1ccc(C(F)(F)F)cc1)c1cc(C(F)(F)F)cc(C(F)(F)F)c1	> 7.95 µM	> 7.95 µM	–
CCCCCc1ccc(NC(=O)NC2=NCCS2)cc1	> 11.3 µM	> 11.3 µM	–
O=C(Nc1ccc(N2CCOCC2)cc1)c1ccccc1Nc1ccc(F)cc1	> 10 µM	> 10 µM	–
CCCN1CCc2nc(NCc3ccc(Oc4ccccc4)cc3)ncc2C1	> 8.81 µM	> 8.81 µM	–
CCOc1cc2c(cc1OCC)CN(c1cnn(-c3nc4ccccc4[nH]3)c(=O)c1Cl)CC2	2.69 µM	–	IC50 (HEPG2TOX_HILL_SLOPE 1.71, HEPG2TOX_R_SQUARED 0.884, PBLUC_HILL_SLOPE 7.85, 14.7, PBLUC_R_SQUARED 0.450, 0.666, read-out: LUCIFERASE INFECTION ASSAY - IC50): 2.1 µM
Cc1ccc2c(c1)s/c(=N/C(=O)c1cccs1)n2C	> 10 µM	2.27 µM	–
CCc1ccc(NC(=O)COc2c(Cl)cc(Cl)c3ccc(C)nc23)cc1	1.31 µM	–	IC50 (HEPG2TOX_HILL_SLOPE 1.5, HEPG2TOX_R_SQUARED 0.996, PBLUC_HILL_SLOPE 3.18, PBLUC_R_SQUARED 0.331, read-out: LUCIFERASE INFECTION ASSAY - IC50): 0.657 µM
CN(C)c1ccc(/C=C(\C#N)c2nc3ccccc3[nH]2)cc1	> 11.4 µM	> 11.4 µM	–
COc1cc(Nc2ncc3c(n2)CCN(C(=O)Nc2ccc(C(C)C)cc2)C3)cc(OC)c1OC	6.4 µM	–	IC50 (HEPG2TOX_HILL_SLOPE 2.3, HEPG2TOX_R_SQUARED 0.688, PBLUC_HILL_SLOPE 0.8, PBLUC_R_SQUARED 0.723, read-out: LUCIFERASE INFECTION ASSAY - IC50): 0.411 µM
C=CCN(C(=O)c1[nH]c(C)c(C(C)=O)c1C)c1nc2c(s1)CCCC2	6.45 µM	–	IC50 (PBLUC_HILL_SLOPE 0.713, PBLUC_R_SQUARED 0.94, read-out: LUCIFERASE INFECTION ASSAY - IC50): 0.296 µM
CC1CCC(C(C)C)C(N(Cc2ccccc2)C(=O)c2cccc3ccccc23)C1 (stereo not given)	> 8.26 µM	–	IC50 (FFLUC_HILL_SLOPE 35.1, FFLUC_R_SQUARED 0.0345, HEPG2TOX_HILL_SLOPE 5.62, HEPG2TOX_R_SQUARED 0.422, PBLUC_HILL_SLOPE 0.939, PBLUC_R_SQUARED 0.258, read-out: LUCIFERASE INFECTION ASSAY - IC50): 6.39 µM
O=C1OC(c2ccccc2)Cc2cc(C(=O)N3CCC(C(=O)Nc4ccccc4)CC3)ccc21 (stereo not given)	> 10 µM	–	IC50 (HEPG2TOX_HILL_SLOPE 2.71, HEPG2TOX_R_SQUARED 0.817, PBLUC_HILL_SLOPE 3.44, PBLUC_R_SQUARED 0.218, read-out: LUCIFERASE INFECTION ASSAY - IC50): 6.51 µM

Compound	IC90	IC50 [1]	further results
Cc1cc(NC(=O)C(C)Sc2ncnc3c2oc2ccccc23)no1 (stereo not given)	> 10 µM	–	IC50 (PBLUC_HILL_SLOPE 2.18, PBLUC_R_SQUARED 0.0347, read-out: LUCIFERASE INFECTION ASSAY - IC50): > 10 µM
Cc1ccc(-c2nn(CN(C)CC(=O)NC(C)C)c(=S)n2C)cc1	> 10 µM	> 10 µM	–
O=C(NCc1ccc(Oc2ccc(F)cc2)cc1)c1ccc(=O)[nH]n1	> 10 µM	–	IC50 (HEPG2TOX_HILL_SLOPE 2.29, HEPG2TOX_R_SQUARED 0.724, PBLUC_HILL_SLOPE 1.94, PBLUC_R_SQUARED 0.162, read-out: LUCIFERASE INFECTION ASSAY - IC50): 5.95 µM
C/C(CCc1ccc2c(c1)OCO2)=N\Nc1nc2ccccc2[nH]1	> 10 µM	> 10 µM	–
O=C(NCc1ccc(Oc2ccc(F)cc2)cc1)C1Cc2ccccc2O1 (stereo not given)	3.84 µM	–	IC50 (HEPG2TOX_HILL_SLOPE 1.58, HEPG2TOX_R_SQUARED 0.911, PBLUC_HILL_SLOPE 12.2, PBLUC_R_SQUARED 0.351, read-out: LUCIFERASE INFECTION ASSAY - IC50): 3.21 µM
COc1ccc2c(c1)c(CC(=O)Nc1cccc(S(=O)(=O)N3CCCC3)c1)c(C)n2C(=O)c1ccc(Cl)cc1	> 10 µM	–	IC50 (FFLUC_HILL_SLOPE 4.55, FFLUC_R_SQUARED 0.0972, read-out: LUCIFERASE INFECTION ASSAY - IC50): > 10 µM
Cc1nn(C)c(C)c1NC(=O)C(C)Sc1nnc(Nc2ccc(Oc3ccccc3)cc2)s1 (stereo not given)	> 10 µM	–	IC50 (PBLUC_HILL_SLOPE 13, PBLUC_R_SQUARED 0.117, read-out: LUCIFERASE INFECTION ASSAY - IC50): 8.97 µM
O=C(CN1C(=O)S/C(=C\c2ccco2)C1=O)c1ccc([N+](=O)[O-])cc1	> 10 µM	–	IC50 (HEPG2TOX_HILL_SLOPE 0.122, HEPG2TOX_R_SQUARED 0.0589, read-out: LUCIFERASE INFECTION ASSAY - IC50): > 10 µM
O=C(/C=C/c1ccccc1)Nc1ccc(C23CC4CC(CC(O)(C4)C2)C3)cc1	9.39 µM	–	IC50 (PBLUC_HILL_SLOPE 1.46, PBLUC_R_SQUARED 0.646, read-out: LUCIFERASE INFECTION ASSAY - IC50): 2.09 µM
CCNC(=O)c1cc2c(s1)CCC(C(C)(C)C)C2 (stereo not given)	> 10 µM	–	IC50 (PBLUC_HILL_SLOPE 3.05, PBLUC_R_SQUARED 0.267, read-out: LUCIFERASE INFECTION ASSAY - IC50): 6.74 µM
NC(=O)c1c(NC(=O)NCc2cccnc2)sc2c1CCC2	> 10.4 µM	–	IC50 (HEPG2TOX_HILL_SLOPE 6.58, HEPG2TOX_R_SQUARED 0.0674, read-out: LUCIFERASE INFECTION ASSAY - IC50): > 10.4 µM
CCCn1c(NC(=O)Cc2coc3cc(OC)ccc23)nc2ccccc21	1.31 µM	–	IC50 (FFLUC_HILL_SLOPE 16.7, FFLUC_R_SQUARED 0.137, HEPG2TOX_HILL_SLOPE 1.66, HEPG2TOX_R_SQUARED 0.728, PBLUC_HILL_SLOPE 12.1, PBLUC_R_SQUARED 0.477, read-out: LUCIFERASE INFECTION ASSAY - IC50): 1.09 µM
CC(C)CCn1c(SCC(=O)N2CCc3ccccc3C2)nc2ccccc2c1=O	> 10 µM	> 10 µM	–
CC1CCCN(C(=O)COc2ccc(-c3nc4ccccc4s3)cc2)C1 (stereo not given)	> 10 µM	–	IC50 (HEPG2TOX_HILL_SLOPE 6.02, HEPG2TOX_R_SQUARED 0.809, PBLUC_HILL_SLOPE 2.74, PBLUC_R_SQUARED 0.285, read-out: LUCIFERASE INFECTION ASSAY - IC50): 6.51 µM
O=C(Nc1ccc([N+](=O)[O-])cc1)n1nccc1-c1ccc(-c2cccs2)s1	> 8.32 µM	7.77 µM	–
CCCNC(=O)c1c(NC(=O)c2cccc(Cl)c2Cl)nc2ccc(C)cn12	> 8.14 µM	> 8.14 µM	–
O=C(c1cnc2cc3c(cc2c1)OCCCO3)c1cc(F)ccc1O	3.65 µM	3.12 µM	–
CC(=O)Nc1cccc(-c2ccnc3c2CC(C)(C(=O)NCc2cccc(Cl)c2)O3)c1 (stereo not given)	> 7.57 µM	–	IC50 (FFLUC_HILL_SLOPE 12.6, FFLUC_R_SQUARED 0.486, HEPG2TOX_HILL_SLOPE 12, HEPG2TOX_R_SQUARED 0.561, PBLUC_HILL_SLOPE 2.25, PBLUC_R_SQUARED 0.29, read-out: LUCIFERASE INFECTION ASSAY - IC50): 4.2 µM
CN(C)CCNc1cc(-c2cccs2)nc2ccccc12	4.22 µM	–	IC50 (HEPG2TOX_HILL_SLOPE 9.05, HEPG2TOX_R_SQUARED 0.795, PBLUC_HILL_SLOPE 12.9, PBLUC_R_SQUARED 0.598, read-out: LUCIFERASE INFECTION ASSAY - IC50): 3.56 µM
COc1cc(-c2cnc3cnc(-c4cnn(C)c4)cn23)ccc1O	3.64 µM	–	IC50 (HEPG2TOX_HILL_SLOPE 7.18, HEPG2TOX_R_SQUARED 0.736, PBLUC_HILL_SLOPE 4.69, PBLUC_R_SQUARED 0.709, read-out: LUCIFERASE INFECTION ASSAY - IC50): 2.28 µM
